Patent US10456405B2, “Nitric oxide-releasing prodrug molecule of substituted quinazolines” (ZHEJIANG HUAHAI PHARMACEUTICAL CO., LTD, priority 2015, dated 2019)
Read-outs that look alike come from different tables or passages of the source.

What was measured:
[1] = test system: db/db mice; test: Serum NO and heart eNOS in db/db mice after oral gavage; type: in vivo; settings: blank = 100, oral gavage 150 mg/kg (isosorbide mononitrate 5 mg/kg), 1 h after administration (H101: 2 h)
Excerpt: Experimental method: 25 eight-week-old db/db mice (strain: BKS.Cg−+Leprdb/+leprdb/JclSlac; grade: SPF; gender: male; source: Shanghai SLAC Laboratory Animal Co., Ltd.) were selected. 3 of them were selected as the blank administration control. 2 mice were used as the positive drug control (isosorbide mononitrate). The remaining 20 mice were randomly divided into 5 groups, 4 mice per group, which are H101 administration group, H111 administration group, H116 administration group, H119 administration group, and H130 administration group. The tested compounds of the positive drug control group and each administration group were dissolved in DMSO. Then PEG400 was added. The mixture was shaken and mixed thoroughly. At last, 10% of HP-β-CD was added. The mixture was shaken and mixed thoroughly. The ratio of each solvent was DMSO: PEG400:10% of HP-β-CD=5:67.5:27.5. The administration group was administered by oral gavage at the dose of 150 mg/kg. The positive drug control group was administered at the dose of 5 mg/kg. The mice in the H101 administration group were sacrificed at 2 h after the administration. The mice in the remaining administration groups were sacrificed at 1 h after the administration. The blood was collected respectively into 1.5 mL centrifuge tube, standing at room temperature for more than 30 min, and then centrifuged (3000 rpm, 10 min). The supernatant serum was aspirated, and stored at −80° C. for testing. After the blood was collected, the heart was cut with the thoracic aorta. Three parts of the heart were weighed and placed into cryovials, rapidly frozen in liquid nitrogen, and cryopreserved at −80° C. for testing. The aorta and aortic arch were weighed, rapidly frozen in liquid nitrogen, and cryopreserved at −80° C. for testing. The content of NO in the serum of the […] mice was determined by a total NO test kit (Beyotime). The content of NOS in the heart of the mice was determined with an NOS test kit (Beyotime). The content of eNOS was calculated by the difference between the measured values before and after adding the eNOS inhibitor L-NAME (Beyotime).

[2] = test system: apoE−/− mice; test: apoE−/− mouse atherosclerosis model, high-fat diet 10 weeks; type: in vivo
Excerpt: Experimental method: 36 eight-week-old male apoE-/- mice were selected and randomly divided into a blank administration group, an […] administration group, an […] administration group, an […] administration group, an […] administration group, and an […] administration group, 6 mice per group. The mice in each group were fed with high-fat diet for 10 weeks. At the beginning of the high-fat feeding, the mice in each group were administrated. Each tested compound was intragastric administered at the dose of 150 mg/kg twice a day. The blank administration group was given corresponding dose of saline. […] After the blood was taken, the serum, heart, and aorta were isolated. The levels of total cholesterol (TC), high density lipoprotein cholesterol (HDL-C), and low density lipoprotein cholesterol (LDL-C) in the serum of the mice in each group were measured by automatic biochemical analyzer. The ApoA1 expression level was detected with an ApoA1 kit. The content of NO in the serum of the mice was determined with a total NO test kit (Beyotime). The NOS activities of the heart, aorta, and serum were determined with an NOS test kit (Beyotime). The content of eNOS was calculated by the difference between the measured values determined before and after adding eNOS inhibitor L-NAME (Beyotime).

[3] = rat, in vivo
Protocol: Experimental method: Intravenous injection solutions (the administration concentrations of the tested compounds were 1 mg/kg) and oral gastric perfusates (the administration concentrations of the test compounds were 5 mg/kg) of the test compounds were prepared, and intravenously and orally administered to three SD rats, respectively. The concentrations of the whole blood for H130 at 0.083 h, 0.25 h, 0.5 h, 1 h, 2 h, 4 h, 8 h, and 24 h after administration were determined by LC-MS/MS, respectively. The pharmacokinetic parameters were compared by a drug-time curve. Sample pretreatment: 150 μL of the whole blood to be tested was aspirated accurately. 600 μL of internal standard solution (diluted to 0.5 μg/mL with methanol) was added, sufficiently mixed by a vortex mixer, and centrifuged at 13000 r/min for 20 min at 4° C. 3 μL of the supernatant was taken into a sample vial.
Chromatographic conditions: C18 reversed-phase chromatographic column; gradient elution with mobile phase A: water/acetonitrile (v:v=95:5) with 0.025% of formic acid and 1 mM of ammonium acetate added thereto, and mobile phase B: acetonitrile/water (v:v=95:5) with 0.025% of formic acid and 1 mM of ammonium acetate added thereto.

[4] = Release of HNO (headspace gas chromatography of nitrous oxide); settings: PBS pH 7.4, 37° C., argon, 90 min
Protocol: Experiment 2. Experimental study on the tested compounds for releasing HNO HNO rapidly dimerizes and dehydrates to produce nitrous oxide in aqueous solution. In the experiment of detecting HNO, gas chromatographic headspace analysis is generally used to determine the amount of the released nitrous oxide, thereby indirectly detect the level of releasing HNO of the compound.
Experimental procedure: Each of the tested compounds was prepared to 20 mg/mL of mother liquor with DMF. Prior to the start of the experiment, 50 μL of drug mother liquor was placed into a 20 mL headspace sample vial. The tested compound was diluted by adding 5 mL of PBS buffer with pH 7.4. The temperature of the resulting sample was kept at 37° C. under argon gas for 90 min. Then the top gas was extracted for gas chromatographic analysis of nitrous oxide by using Angeli's Salt as a positive compound in the experiment.

[5] = test system: ApoA-I mRNA; test: Regulation of ApoA-I mRNA in HepG2 cells (real-time PCR); type: cell-based; set-up: key: Active: When 100 μM of the tested compound allowed ApoA-I mRNA in HepG2 cells to increase more than 15%, then the test compound was known as an ApoA active compound; settings: 100 μM, 48 h, relative to DMSO control
Protocol: Experiment 5. Regulation of the Tested Compounds on ApoA-I mRNA HepG2 cells were cultured for 24 h in a 24-well plate with 400 μl of MEM medium containing 0.5% (v/v) of fetal bovine serum. Then each of the tested compounds (100 μM) and the positive control RVX-208 (100 μM) were added. The cells were cultured for another 48 h. The medium was aspirated out. After washing with 200 μl of PBS, 85 μl of cell lysis solution was added into the cells in each well. The cells were incubated at room temperature for 5 to 10 min to be completely dissolved and detached. The mRNA was extracted from the cells with a kit. The extracted mRNA were used for a real-time fluorescence quantitative PCR detection with RNA Fluorescence (RiboGreen) Quantitation Assay Kit and ApoA-I mRNA Primer-Probe Mixture from the company of Applied Biosystems.
After obtaining the Ct values, the induction fold of each test compound relative to DMSO control was calculated. The induction fold was used to reflect the ability of regulating ApoA-I mRNA for the tested compounds. When 100 μM of the tested compound allowed ApoA-I mRNA in HepG2 cells to increase more than 15%, then the test compound was known as an ApoA active compound.

[6] = 2 h
Protocol: Experimental method: The tested compounds (2 μM) were added into mouse or human plasma, and incubated at 37° C. Samples were taken at 0, 10, 30, 60 and 120 min respectively. The reaction was stopped by adding a stop agent. The mixture was sufficient shaken, and centrifuged at 4000 rpm for 10 min at 4° C. The supernatant was taken. The concentrations of the tested compounds and their metabolite (H130) in the supernatant were measured by LC-MS/MS.

[7] = Release of nitric oxide in vitro (Griess reagent, nitrite); settings: 10^−4 mol/L tested substance, phosphate buffer pH 7.4, cysteine 5 mmol/L, 37° C., 1 h; as nitrite
Protocol: Experiment 1. Experimental Study on the Tested Compounds for Releasing Nitric Oxide in vitro
Experimental Procedure: • (1) Preparation of Griess Reagent: 4 g of aminobenzenesulfonamide, 0.2 g of N-naphthyl ethylene diamine hydrochloride, and 10 mL of 85% phosphoric acid solution were taken to form a solution, which is diluted to 100 mL with distilled water. • (2) Plotting of the standard curve: a serie of standard solution of 0.01, 0.03, 0.05, 0.07, 0.09, 0.2, 0.4 μg/mL of nitrite nitrogen was prepared, 10 mL of each was taken to sufficiently mix with 2.5 mL of Griess reagent, standing at room temperature for 10 min, and its absorbance value at the wavelength of 540 nm was measured. The standard curve was plotted based on the resulting data. • (3) Measuring the amount of the released NO of the tested drug: all of the tested substances were dissolved in dimethylsulfoxide (1 mL) firstly. Then phosphate buffer (pH 7.4) was slowly added dropwise, and shaken. The drug solution was diluted to 50 mL, allowing the buffer solution to contain excess cysteine (5 mmol/L), and the final concentration of the tested substances being 10^−4 mol/L; the solution was incubated at 37° C. 2 mL of the reaction solution was taken to mix with 500 μl of Griess reagent at 1 h respectively, standing at room temperature for 10 min. The absorbance value of the mixture at 540 nm was measured. Isosorbide mononitrate was used as a positive control, and H130 was used as a negative control. The amount of the released NO was represented by the amount of its oxidation product, nitrite (NO2^−).

[8] = test system: C57BL/6 mice; test: Serum NO level in C57 mice after oral gavage; type: in vivo; settings: oral gavage 150 mg/kg (positive drug 5 mg/kg), FIG. 1
Excerpt: Experimental method: 60 eight-week-old C57BL/6 mice (level: SPF; gender: male; source: Shanghai SLAC Laboratory Animal Co., Ltd.) were selected. […] were selected as the blank control. 12 mice were used as the positive drug control (isosorbide mononitrate). 12 mice were used as […] administration group. The other 32 mice were randomly divided into 4 groups, 8 mice per group, which are […] administration group, […] administration group, […] administration group, and […] administration group, respectively. The tested compounds of the positive drug control group and each administration group were dissolved in DMSO and then PEG400 was added thereto. The mixture was shaken and mixed thoroughly. At last, 10% of HP-β-CD was added. The mixture was shaken and mixed thoroughly. The ratio of each solvent was DMSO: PEG400:10% of HP-β-CD=5:67.5:27.5. The administration groups were administered by oral gavage at the dose of 150 mg/kg. The positive drug control group was administered at the dose of 5 mg/kg. The mice in each group were sacrificed by inhaling excess CO2 at 10 min, 30 min, 60 min, 120 min, 180 min, and 240 min after administration. The blood was collected into a 1.5 mL centrifuge tube, standing at room temperature for more than 30 min, and then centrifuged (3000 rpm, 10 min). The supernatant serum was aspirated, and stored at -80° C. for testing. After the blood was collected, the heart was cut with the thoracic aorta. Three parts of the heart were weighed and placed into cryovials, rapidly frozen in liquid nitrogen, and cryopreserved at -80° C. for testing. The aorta and aortic arch were weighed, rapidly frozen in liquid nitrogen, and cryopreserved at -80° C. for testing. The content of NO in the serum of C57BL/6 mice was determined by using the total NO test kit (Beyotime).

[9] = blank administration group = 100, 150 mg/kg twice a day, 10 weeks
[10] = serum, high-fat diet 10 weeks, intragastric 150 mg/kg twice a day

release of prototype compound H130 after administration [3]	AUCRatio (Dosage Calibration) ([3]; iv, 1 mg/kg) [%]	AUCRatio (Dosage Calibration) ([3]; po, 5 mg/kg) [%]	stability in human plasma [6]	SMILES	Heart eNOS [1] [%]	Serum NO [1] [%]	Aorta eNOS [2, 9] [%]	ApoA1 [2, 9] [%]	Heart eNOS [2, 9] [%]	Serum NO [2, 9] [%]	Serum eNOS [2, 9] [%]	HDL-C [2, 10] [mg/dL]	LDL-C [2, 10] [mg/dL]	TC [2, 10] [mg/dL]	Molar Quantities of N2O/Sample [4] [%]	Upregulation of Apoa-I Mrna Level [5]	Amount of Released No [7] [µM]	time after administration at which serum NO level rose to its maximum, then decreased [8] [h]
can be rapidly released	51.6	45.3	good stability	COc1cc(OC)c2c(=O)[nH]c(-c3cc(C)c(OCCOC(=O)CCC(=O)ONS(=O)(=O)c4cccc(S(C)(=O)=O)c4)c(C)c3)nc2c1 [Compound H116]	159	147	136	128	148	138	123	74 ± 11	315 ± 31	1123 ± 73	15.3	Active	–	–
–	–	–	–	O=[N+]([O-])O[C@@H]1CO[C@H]2[C@@H]1OC[C@@H]2O [Isosorbide Mononitrate, Isosorbide mononitrate, reference compound]	169	136	–	–	–	–	–	–	–	–	–	–	3.31	2
